# Earlier results in patent publication US20080004279A1, “Use of C-Kit Inhibitors for Treating Plasmodium Related Diseases” (priority 2004, published 2008).
# Key:
# [1] = test system: GPI-induced NO production in macrophages and vascular endothelial cells
molecule,measurement,setting,value
CCN(CC)CCCC(C)Nc1ccnc2cc(Cl)ccc12 (stereo not drawn) [Chloroquine],mode of inhibition of PTK with respect to ATP,membrane bound PTK; kinetic studies,noncompetitive
same,mode of inhibition of PTK with respect to peptide substrate,membrane bound PTK; kinetic studies,competitive inhibitor
same,IC50,"membrane bound PTK; read-out: inhibition of membrane bound PTK activity, IC50, dose dependent, P. falciparum",45 µM
O=c1c(-c2ccc(O)cc2)coc2cc(O)cc(O)c12 [genistein],release of NO by parasite extracts and by GPI,[1]; GPI alone or in combination with IFN-gamma,inhibited
S=C(S)N1CCCC1 [pyrrolidine dithiocarbamate],GPI-induced NO production / release,[1],blocked
calphostin C,GPI-induced NO production / release,[1],blocked
